US8952024B2, “Herbicidal pyrimidone derivatives” (E I du Pont de Nemours and Company, priority 2009, dated 2015)

Columns and labels:
Assay type in all cases: in vivo
[1] = system: barnyardgrass (Echinochloa crus-galli); experiment: Test A pre-/postemergence plant response
Description: (§1) Seeds of barnyardgrass (Echinochloa crus-galli), large crabgrass (Digitaria sanguinalis), giant foxtail (Setaria faberii), morningglory (Ipomoea spp.), pigweed (Amaranthus retroflexus), velvetleaf (Abutilon theophrasti), wheat (Triticum aestivum) and corn (Zea mays) were planted into a blend of loam soil and sand and treated preemergence with a directed soil spray using test chemicals formulated in a non-phytotoxic solvent mixture which included a surfactant. At the same time these species were also treated with postemergence applications of test compounds formulated in the same manner.
(§2) Plants ranged in height from two to ten cm and were in the one- to two-leaf stage for the postemergence treatment. Treated plants and untreated controls were maintained in a greenhouse for approximately ten days, after which time all treated plants were compared to untreated controls and visually evaluated for injury. Plant response ratings, summarized in Table A, are based on a 0 to 100 scale where 0 is no effect and 100 is complete control. A dash (-) response means no test result.

[2] = system: corn (Zea mays); experiment: Test A pre-/postemergence plant response
Description: as §1, §2

[3] = system: giant foxtail (Setaria faberii); experiment: Test A pre-/postemergence plant response
Description: as §1, §2

[4] = system: large crabgrass (Digitaria sanguinalis); experiment: Test A pre-/postemergence plant response
Description: as §1, §2

[5] = system: morningglory (Ipomoea spp.); experiment: Test A pre-/postemergence plant response
Description: as §1, §2

[6] = system: pigweed (Amaranthus retroflexus); experiment: Test A pre-/postemergence plant response
Description: as §1, §2

[7] = system: velvetleaf (Abutilon theophrasti); experiment: Test A pre-/postemergence plant response
Description: as §1, §2

[8] = system: wheat (Triticum aestivum); experiment: Test A pre-/postemergence plant response
Description: as §1, §2

[9] = system: barnyardgrass (Echinochloa crus-galli); experiment: Test B flooded paddy test; conditions: for Plant response rating, Flood, Barnyardgrass: 250 g ai/ha, flooded paddy test, visual rating on 0 to 100 scale (0 no effect, 100 complete control) after 13 to 15 days; for Plant response rating, Barnyardgrass: Flood (flooded paddy test), 13 to 15 days
Description: (§3) Plant species in the flooded paddy test consisted of rice (Oryza sativa), umbrella sedge (Cyperus difformis), ducksalad (Heteranthera limosa) and barnyardgrass (Echinochloa crus-galli) grown to the 2-leaf stage for testing. At the time of treatment, test pots were flooded with water to 3 cm above the soil surface, treated by application of test compounds directly to the paddy water, and then maintained at that water depth for the duration of the test.
(§4) Treated plants and controls were maintained in a greenhouse for 13 to 15 days, after which time all treated plants were visually evaluated and compared to controls. Plant response ratings, summarized in Table B, are based on a scale of 0 to 100 where 0 is no effect and 100 is complete control. A dash (-) response means no test result.

[10] = system: ducksalad (Heteranthera limosa); experiment: Test B flooded paddy test; conditions: for Plant response rating, Flood, Ducksalad: 250 g ai/ha, flooded paddy test, visual rating on 0 to 100 scale (0 no effect, 100 complete control) after 13 to 15 days; for Plant response rating, Ducksalad: Flood (flooded paddy test), 13 to 15 days
Description: as §3, §4

[11] = system: rice (Oryza sativa); experiment: Test B flooded paddy test; conditions: for Plant response rating, Flood, Rice: 250 g ai/ha, flooded paddy test, visual rating on 0 to 100 scale (0 no effect, 100 complete control) after 13 to 15 days; for Plant response rating, Rice: Flood (flooded paddy test), 13 to 15 days
Description: as §3, §4

[12] = system: umbrella sedge (Cyperus difformis); experiment: Test B flooded paddy test; conditions: for Plant response rating, Flood, Sedge, Umbrella: 250 g ai/ha, flooded paddy test, visual rating on 0 to 100 scale (0 no effect, 100 complete control) after 13 to 15 days; for Plant response rating, Sedge, Umbrella: Flood (flooded paddy test), 13 to 15 days
Description: as §3, §4

[13] = Postemergence, 125 g ai/ha, visual injury, 0 to 100 scale (0 no effect, 100 complete control), approx. ten days
[14] = Postemergence, 500 g ai/ha, 0 to 100 scale, 0 = no effect, 100 = complete control, approx. ten days
[15] = Preemergence, 125 g ai/ha, 0 to 100 scale, 0 = no effect, 100 = complete control
[16] = Preemergence, 500 g ai/ha, visual injury, 0 to 100 scale (0 no effect, 100 complete control), approx. ten days
[17] = 31 g ai/ha, scale of 0 to 100 where 0 is no effect and 100 is complete control
[18] = 62 g ai/ha, scale 0 to 100, 0 is no effect, 100 is complete control
[19] = 125 g ai/ha, scale 0 to 100, 0 is no effect, 100 is complete control

O=C1CCCC([O-])=C1C(=O)c1cnc(-c2ccccc2)n(-c2ccc(Cl)cc2)c1=O.[K+] [Compound 13]
Barnyardgrass plant response rating [1, 13]: 30
Plant response rating, Barnyardgrass [1, 14]: 90
Plant response rating, Barnyardgrass [1, 15]: 10
Plant response rating, Barnyardgrass [1, 16]: 90
Corn plant response rating [2, 13]: 0
Plant response rating, Corn [2, 14]: 50
Plant response rating, Corn [2, 15]: 0
Plant response rating, Corn [2, 16]: 20
Foxtail, Giant plant response rating [3, 13]: 30
Plant response rating, Foxtail, Giant [3, 14]: 80
Plant response rating, Foxtail, Giant [3, 15]: 50
Plant response rating, Foxtail, Giant [3, 16]: 90
Crabgrass, Large plant response rating [4, 13]: 30
Plant response rating, Crabgrass, Large [4, 14]: 90
Plant response rating, Crabgrass, Large [4, 15]: 60
Plant response rating, Crabgrass, Large [4, 16]: 100
Morningglory plant response rating [5, 13]: 0
Plant response rating, Morningglory [5, 14]: 50
Plant response rating, Morningglory [5, 15]: 0
Plant response rating, Morningglory [5, 16]: 0
Pigweed plant response rating [6, 13]: 80
Plant response rating, Pigweed [6, 14]: 100
Plant response rating, Pigweed [6, 15]: 40
Plant response rating, Pigweed [6, 16]: 100
Velvetleaf plant response rating [7, 13]: 100
Plant response rating, Velvetleaf [7, 14]: 100
Plant response rating, Velvetleaf [7, 15]: 80
Plant response rating, Velvetleaf [7, 16]: 100
Wheat plant response rating [8, 13]: 10
Plant response rating, Wheat [8, 14]: 60
Plant response rating, Wheat [8, 15]: 0
Plant response rating, Wheat [8, 16]: 40
Plant response rating, Flood, Barnyardgrass [9]: 35
Plant response rating, Barnyardgrass [9, 17]: 0
Plant response rating, Barnyardgrass [9, 18]: 0
Plant response rating, Barnyardgrass [9, 19]: 0
Plant response rating, Flood, Ducksalad [10]: 95
Plant response rating, Ducksalad [10, 17]: 0
Plant response rating, Ducksalad [10, 18]: 0
Plant response rating, Ducksalad [10, 19]: 0
Plant response rating, Flood, Rice [11]: 25
Plant response rating, Rice [11, 17]: 0
Plant response rating, Rice [11, 18]: 0
Plant response rating, Rice [11, 19]: 0
Plant response rating, Flood, Sedge, Umbrella [12]: 85
Plant response rating, Sedge, Umbrella [12, 17]: 0
Plant response rating, Sedge, Umbrella [12, 18]: 0
Plant response rating, Sedge, Umbrella [12, 19]: 60

COc1ccccc1-n1c(-c2ccccc2)ncc(C(=O)C2=C(O)CCCC2=O)c1=O [Compound 15]
Barnyardgrass plant response rating [1, 13]: 10
Plant response rating, Barnyardgrass [1, 14]: 40
Plant response rating, Barnyardgrass [1, 15]: 10
Plant response rating, Barnyardgrass [1, 16]: 90
Corn plant response rating [2, 13]: 0
Plant response rating, Corn [2, 14]: 10
Plant response rating, Corn [2, 15]: 0
Plant response rating, Corn [2, 16]: 0
Foxtail, Giant plant response rating [3, 13]: 10
Plant response rating, Foxtail, Giant [3, 14]: 70
Plant response rating, Foxtail, Giant [3, 15]: 40
Plant response rating, Foxtail, Giant [3, 16]: 70
Crabgrass, Large plant response rating [4, 13]: 20
Plant response rating, Crabgrass, Large [4, 14]: 70
Plant response rating, Crabgrass, Large [4, 15]: 40
Plant response rating, Crabgrass, Large [4, 16]: 90
Morningglory plant response rating [5, 13]: 10
Plant response rating, Morningglory [5, 14]: 50
Plant response rating, Morningglory [5, 15]: 0
Plant response rating, Morningglory [5, 16]: 60
Pigweed plant response rating [6, 13]: 60
Plant response rating, Pigweed [6, 14]: 90
Plant response rating, Pigweed [6, 15]: 30
Plant response rating, Pigweed [6, 16]: 90
Velvetleaf plant response rating [7, 13]: 100
Plant response rating, Velvetleaf [7, 14]: 100
Plant response rating, Velvetleaf [7, 15]: 40
Plant response rating, Velvetleaf [7, 16]: 90
Wheat plant response rating [8, 13]: 0
Plant response rating, Wheat [8, 14]: 20
Plant response rating, Wheat [8, 15]: 0
Plant response rating, Wheat [8, 16]: 20
Plant response rating, Flood, Barnyardgrass [9]: 35
Plant response rating, Barnyardgrass [9, 18]: 20
Plant response rating, Flood, Ducksalad [10]: 60
Plant response rating, Ducksalad [10, 18]: 0
Plant response rating, Flood, Rice [11]: 0
Plant response rating, Rice [11, 18]: 0
Plant response rating, Flood, Sedge, Umbrella [12]: 30
Plant response rating, Sedge, Umbrella [12, 18]: 0

Cc1cccc(-n2c(-c3ccccc3)ncc(C(=O)C3=C(O)CCCC3=O)c2=O)c1 [Compound 18]
Barnyardgrass plant response rating [1, 13]: 20
Plant response rating, Barnyardgrass [1, 14]: 90
Plant response rating, Barnyardgrass [1, 15]: 10
Plant response rating, Barnyardgrass [1, 16]: 100
Corn plant response rating [2, 13]: 0
Plant response rating, Corn [2, 14]: 20
Plant response rating, Corn [2, 15]: 0
Plant response rating, Corn [2, 16]: 20
Foxtail, Giant plant response rating [3, 13]: 40
Plant response rating, Foxtail, Giant [3, 14]: 90
Plant response rating, Foxtail, Giant [3, 15]: 40
Plant response rating, Foxtail, Giant [3, 16]: 90
Crabgrass, Large plant response rating [4, 13]: 30
Plant response rating, Crabgrass, Large [4, 14]: 80
Plant response rating, Crabgrass, Large [4, 15]: 60
Plant response rating, Crabgrass, Large [4, 16]: 100
Morningglory plant response rating [5, 13]: 40
Plant response rating, Morningglory [5, 14]: 100
Plant response rating, Morningglory [5, 15]: 20
Plant response rating, Morningglory [5, 16]: 70
Pigweed plant response rating [6, 13]: 100
Plant response rating, Pigweed [6, 14]: 100
Plant response rating, Pigweed [6, 15]: 70
Plant response rating, Pigweed [6, 16]: 100
Velvetleaf plant response rating [7, 13]: 100
Plant response rating, Velvetleaf [7, 14]: 100
Plant response rating, Velvetleaf [7, 15]: 30
Plant response rating, Velvetleaf [7, 16]: 100
Wheat plant response rating [8, 13]: 0
Plant response rating, Wheat [8, 14]: 50
Plant response rating, Wheat [8, 15]: 0
Plant response rating, Wheat [8, 16]: 40
Plant response rating, Flood, Barnyardgrass [9]: 50
Plant response rating, Barnyardgrass [9, 17]: 10
Plant response rating, Barnyardgrass [9, 18]: 20
Plant response rating, Barnyardgrass [9, 19]: 20
Plant response rating, Flood, Ducksalad [10]: 90
Plant response rating, Ducksalad [10, 17]: 20
Plant response rating, Ducksalad [10, 18]: 50
Plant response rating, Ducksalad [10, 19]: 65
Plant response rating, Flood, Rice [11]: 25
Plant response rating, Rice [11, 17]: 10
Plant response rating, Rice [11, 18]: 15
Plant response rating, Rice [11, 19]: 25
Plant response rating, Flood, Sedge, Umbrella [12]: 85
Plant response rating, Sedge, Umbrella [12, 17]: 0
Plant response rating, Sedge, Umbrella [12, 18]: 30
Plant response rating, Sedge, Umbrella [12, 19]: 50
